Entries after “also recorded” stand apart in the source; their conditions may differ. Where two headings read alike, the source gives them in different places.
Legend:
[1] = system: Agrobacterium tumefaciens (KYC55); test: Quorum sensing inhibition test with bio-reporter KYC55 (TLC overlay); type: cell-based; settings: for Degree of QSI of KYC55: Table 1, coumaperine derivatives, 40 mM in ~20 μL acetonitrile dried on TLC plate, overnight, color intensity; for QSI activity against KYC55, in words: running text; for Degree of QSI of KYC55: key: −: no inhibition; +: low inhibition; ++: medium inhibition; +++: strong inhibition; for Degree of quorum sensing inhibition (QSI), KYC55: key: −: no inhibition; +: low inhibition; ++: medium inhibition; +++: strong inhibition
Method: (§1) TLC preparation: all derivatives were dissolved in 100% acetonitrile to a concentration of 40 mM. Then placed 20 μlon the same spot on the TLC and let the solvent evaporate before use. CV026: few colonies were transferred to liquid LB (Lenox) for overnight incubation at 30° C. in a 45 degree in orbital shaker. At the O.D. 0.8 3 ml of the starter was added to preheated soft LB agar containing 500 nM of 3-oxo-C6 (Sigma-Aldrich). The mixture was then loaded on the TLC in a glass plate for O.N. incubation in 30° C. The next day inhibition zone was measured, while QS is taking place bacteria produce purple pigment, and when QS is inhibited no pigment is produced. KYC55 (pJZ372) (pJZ384) (pJZ410): 20 μl from the frozen stock into 25 ml AT media (AT buffer×20: 1.57 M KH2PO4 pH=7.3. AT salts mix×20: 300 mM (NH4)2SO4, 13 mM MgSO4, 1.4 mM CaCl2, 0.4 mM FeSO4·7H2O, 0.26 mM MnSO4·H2O. AT media: 50 ml×20 AT-buffer, 50 ml×20 AT-salts, 10 ml 50% (w/v) glucose, add 890 ml to final volume of 1 liter.) For O.N. at 30° C. in an orbital shaker. Into preheated water agar with 25 ml AT-buffer, and 60 μg/ml X-gal and 5 nM 3-oxo-c8 (both from Sigma-Aldrich) 25 ml of the starter was added. Then, that mixture was loaded on the TLC in glass plate for O.N. incubation in 30° C. The next day the inhibition zone was measured. The bacteria produce blue pigment during QS and when QS is inhibited no pigment is produced. KYC55 (pJZ372) (pJZ384) (pJZ410) preservation in tetracycline (1 μg/ml), spectinomycin (100 μg/ml), gentamicin (100 μg/ml) (all antibiotics from Sigma Aldrich) in AT media O.N. then centrifuged and suspend in 15% glycerol frozen and maintained at −80° C.

[2] = system: gram-positive and gram-negative bacteria; test: Antibacterial activity, overall statement (diffusion discs test); type: cell-based; settings: for Antibacterial activity, in words: running text; for Antibacterial: Table 6 summary
Method: (§2) All derivatives were dissolved in acetonitrile to a final concentration of 40 mM. Twenty (20) μl were loaded onto Whatman filter paper discs and dried. Bacillus subtilis, Staphylococcus aureus, and Acinetobacter baumannii were grown in LB (Lenox) O.N. One hundred (100) μl from the starter culture was plated on LB agar (Miller) dishes. Streptococcus sobrinus, and Streptococcus mutans grown in Brain Heary Infusion (BHI, Himedia) O.N. were similarly plated on BHI agar dishes. Discs were laid and incubated O.N. in 37° C. and the diameter of inhibition of bacterial growth was measured.
The antibacterial activities of derivatives showing QSI are outlined in Table 4. […] Similar to that idea, synthetic derivatives of furanon (product of marine algae) shown in-vivo QSI activity without antibacterial activity followed by immune response of the infected animal. Phenolic compounds decrease QS and virulence in PA01 and Chromobacterium violaceum. There is increasing number of studies, searching for compounds that targeting non-vital processes to combat bacteria.

[3] = system: Acinetobacter baumannii; test: Diffusion discs test, Acinetobacter baumannii; type: cell-based; parameters: key: —: no activity; settings: discs with 40 mM of compound in 20 μl solvent
Method: as §2

[4] = system: PA01; test: Diffusion discs test, PA01; type: cell-based, P. aeruginosa; parameters: key: —: no activity; settings: discs with 40 mM of compound in 20 μl solvent
[5] = system: Chromobacterium violaceum (CV026); test: Quorum sensing inhibition test with bio-reporter CV026 (TLC overlay); type: cell-based; settings: for Degree of QSI of CV026: Table 1, coumaperine derivatives, 40 mM in ~20 μL acetonitrile dried on TLC plate, overnight, color intensity; for QSI activity against CV026, in words: running text; for Degree of QSI of CV026: key: −: no inhibition; +: low inhibition; ++: medium inhibition; +++: strong inhibition; for Degree of quorum sensing inhibition (QSI), CV026: key: −: no inhibition; +: low inhibition; ++: medium inhibition; +++: strong inhibition
Method: as §1

[6] = system: Streptococcus mutans; test: Diffusion discs test, Streptococcus mutans; type: cell-based; parameters: key: —: no activity; settings: discs with 40 mM of compound in 20 μl solvent
Method: as §2

[7] = system: Bacillus subtilis; test: Diffusion discs test, Bacillus subtilis; type: cell-based; parameters: key: —: no activity; settings: discs with 40 mM of compound in 20 μl solvent
Method: as §2

[8] = system: Staphylococcus aureus; test: Diffusion discs test, Staphylococcus aureus; type: cell-based; parameters: key to Staphylococcus aureus, diameter of growth inhibition: —: no activity; settings: for Staphylococcus aureus, diameter of growth inhibition: discs with 40 mM of compound in 20 μl solvent
Method: as §2

[9] = system: Streptococcus sobrinus; test: Diffusion discs test, Streptococcus sobrinus; type: cell-based; parameters: key: —: no activity; settings: discs with 40 mM of compound in 20 μl solvent
Method: as §2

[10] = in vitro
Method: (§3) The human Hodgkin's Lymphoma derived L428 cell line was used as a model. The cells were grown in RPMI Medium 1640 with 10% FBS, 1% Glutamine and pen-strep (all from Biological Industries, Israel). […] Thirty thousand (30,000) cells/well were placed in 96-well plates with the coumaperine derivatives at different concentrations or with vehicle (DMSO) at a final volume of 200 μl. The plates were incubated for 48 hrs. at 37° C. and 5% CO2 followed by the addition of 50 μl of the XTT reagent tetrazolium-formazan, (Biological Industries, Israel) was added for 2 hrs. at 37° C., 5% CO2. In living cells, mitochondria […] the tetrazolium-formazan salt, thereby generating a color absorbing product at 450 nm. Absorbance was measured at 450 nm and 650 nm in an enzyme-linked immunosorbent assay (ELISA) plate reader (Multiskan Spectrum, Version 1.2), and recorded. Absorption values at 650 nm were subtracted from the blank and the 450 nm values. The results were normalized to the control (treated with DMSO).
(§4) Viability was determined in triplicate in two independent tests. The results were normalized to vehicle (DMSO) treated cells, (100% viability). Mean+SD.

[11] = system: L428 cells; test: in vitro; settings: for CC50: read-out: LC50, 48 hrs
Method: as §3, §4

[12] = system: NF-kB; test: NF-kB-luciferase reporter gene assay in L428 cells; type: cell-based, human; settings: Table 6 summary; note: key: +: active; −: inactive
Method: FIG. 7 includes a vertical bar graph showing a dose response of NF-kB activation according to an NF-kB reporter gene luciferase assay. L428 cells were stably transfected with the NF-kB luciferase reporter gene. The cells were incubated with the compounds at different concentrations for 2 hours. […] The results represent the percentage of NF-kB activation as compared to vehicle (DMSO) treated cells. All samples were normalized to protein concentration. Mean+SD, Two-way ANOVA and Tukey's multiple comparison test. 95% confidence interval (p-values *≤0.0332, **≤0.0021, ***≤0.0002).
L428 cells stable transfectants with the luciferase NF-kB-Luc reporter gene were generated previously described (Ozer et al., 2009), and were maintained in 500 μg/ml of G418 (G418 disulfate salt, Sigma-Aldrich). The cells (5×10^5 /well in triplicate) were incubated for 2 hrs. in 1 ml of medium containing the solvent (DMSO) or different concentrations of the molecules tested. Cells were then harvested, lysed, and monitored by a luciferase reporter assay kit (Promega) according to the manufacturer's instructions. Measurements were carried out using a luminometer (Promega, GLOMAX™ 20/20 Luminometer). Data were normalized to the protein concentration in each lysate as measured by the Bradford method (BioRad) and normalized to the control. Experiments were repeated at least three times.

[13] = system: quorum sensing (CV026 and KYC55); test: Quorum sensing inhibition, overall statement over the bio-reporter bacteria; type: cell-based; settings: for QSI: Table 6 summary; for QSI activity overall, in words: running text
Method: as §1
All the synthesized compounds were evaluated for quorum sensing inhibition against two bioreporter bacteria strains, Chromobacterium violaceum (CV026) and Agrobacterium tumefaciens (KYC55) and the results are summarized in Table 1.

[14] = Table 2, piperlongumine derivatives

| Compound | Degree of QSI of KYC55 [1] | QSI activity against KYC55, in words [1] | Antibacterial activity, in words [2] | Acinetobacter baumannii, diameter of growth inhibition [3] | PA01, diameter of growth inhibition [4] | Degree of QSI of CV026 [5] | QSI activity against CV026, in words [5] | Streptococcus mutans, diameter of growth inhibition [6] | Bacillus subtilis, diameter of growth inhibition [7] | Staphylococcus aureus, diameter of growth inhibition [8] | Streptococcus sobrinus, diameter of growth inhibition [9] | Antibacterial [2] | CC50 at 48 h ([10]; human, LC50) [µM] | Cytotoxic [11] | Anti-inflammatory [12] | QSI [13] | other results |
| --- | --- | --- | --- | --- | --- | --- | --- | --- | --- | --- | --- | --- | --- | --- | --- | --- | --- |
| CSc1ccc(/C=C/C=C/C(=O)N2CCCCC2)cc1 [CP-147, (2E,4E)-5-(4-(methylthio)phenyl)-1-(piperidin-1-yl)penta-2,4-dien-1-one] | − | inactivity; also recorded: does not affect QS | showed antibacterial activity | — | — | + | low activity; also recorded: low QS inhibition effect | — | — | 9 mm | — |  |  |  |  |  | Staphylococcus aureus growth inhibition, in words ([8]; running text): inhibits Staphylococcus aureus growth |
| O=C(/C=C/C=C/c1ccc(F)cc1)N1CCCCC1 [CP-154, (2E,4E)-5-(4-fluorophenyl)-1-(piperidin-1-yl)penta-2,4-dien-1-one] | +++ | highly active | showed antibacterial activity | — | — | +++ | highly active | — | 7 mm | 11 mm | 9 mm | + | 46.8 | + | + | + | Cytotoxic activity, in words [11]: cytotoxic; QSI activity overall, in words [13]: anti QS activity |
| CC(=O)Oc1ccc(/C=C/C=C/C(=O)N2CCCCC2)cc1 [CP-158, 4-((1E,3E)-5-oxo-5-(piperidin-1-yl)penta-1,3-dienyl)phenyl acetate] | ++ |  | did not show antibiotic activity |  |  | +++ | more effective against CV026 than KYC55 |  |  |  |  | − | 285 | + | + | + | Cytotoxic activity, in words [11]: not cytotoxic; QSI activity overall, in words [13]: anti QS activity |
| O=C(/C=C/C(=O)N1CCCCC1)c1ccc(F)c(F)c1 [CP-287, (E)-3-(benzoyl 3,4-difluoro)-1-(piperidin-1-yl)prop-2-en-1-one] |  |  | showed antibacterial activity | — | — |  |  | — | — | — | 9 mm | − |  | + | + | + | CC50 ([11]; L428 cells): 284 µM; CC50 ([11]; Table 5, L428 cells): 284 µM |
| O=C(/C=C/C1CCCCC1)N1CCCCC1 [CP-295, (E)-cyclohexyl-1-(piperidin-1-yl)prop-2-en-1-one] | ++ | moderate activity | showed antibacterial activity | — | — | ++ | moderate activity | — | — | — | 12 mm |  | 408 |  |  |  |  |
| COc1cc(CCC(=O)CC(=O)CCc2ccc(O)c(OC)c2)ccc1O [HCU, Tetrahydrocurcumin] |  |  |  |  |  |  |  |  |  |  |  | − |  |  | + | + | Degree of quorum sensing inhibition (QSI), KYC55 ([1]; Table 3, curcumin derivatives): +++; CC50 at 48 h [10]: 102 µM; Cytotoxic activity, in words ([11]; L428 cells): cytotoxic; Cytotoxic ([11]; Table 6 summary): +; Degree of quorum sensing inhibition (QSI), CV026 ([5]; Table 3, curcumin derivatives): + |
| O=C1C=CCCN1C(=O)/C=C/c1cc(O)c(O)c(O)c1 [PL-25, trihydroxy piperlongumine] |  | moderate inhibition | showed antibacterial activity | — | — |  | inactive | — | — | 9 mm | — |  | 46.3 |  |  |  | Degree of quorum sensing inhibition (QSI), KYC55 [1, 14]: ++; Degree of quorum sensing inhibition (QSI), CV026 [5, 14]: − |

Reference: patent publication US20240109855A1, “ANTI-QUORUM SENSING, ANTI-BIOFILM, AND INFLAMMATION ATTENUATING COMPOUNDS, COMPOSITIONS, AND METHODS OF USING SAME” (priority 2021, published 2024)
